Test results as given in US20240277658A1, “NLRP3 ACTIVATORS FOR USE IN THE TREATMENT OF INFECTIOUS DISEASES OR CANCER BY ACTIVATING NLRP3 INFLAMMASOME” (ALBERT-LUDWIGS-UNIVERSITÄT FREIBURG, priority 2020, published 2024).
Where “and” joins values, the source holds several entries; their conditions need not be identical. Equal entries are not always repeated. Where two headings read alike, the source gives them in different places. Values belong to the compound of their own block, whether it stands above or below them.

Key:
BMDCs = assay: LDH release (lytic cell death, pyroptosis) from LPS-primed BMDCs; type: cell-based, mouse; details: for Average (% positive control): LDH release; for cytotoxicity at 50 µM / cytotoxicity at 20 µM / cytotoxicity at 40 µM / cytotoxicity at 80 µM / cytotoxicity at 25 µM / cytotoxicity at 75 µM / cytotoxicity at 5 µM / cytotoxicity at 100 µM: Mus musculus, BMDC
Method in brief: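 LDH released into medium, detected colorimetrically, served as the pyroptosis read-out in triplicate. LPS-primed (50 ng ml^−1, 3 h) murine bone marrow-derived dendritic cells received test compounds, typically 50 μM, or nigericin (5 μM), R837 or CL097 (100 μM) for 3 hours.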

NLRP3 inflammasome [1] = target: T1, NLRP3 inflammasome (Mus musculus, UniProt Q8R4B8); assay: IL-1β release from LPS-primed BMDCs (ELISA) as readout of NLRP3 inflammasome activation; type: cell-based
T1 construct: endogenous in cells; host or cells: primary mouse bone marrow-derived dendritic cells (BMDCs), LPS-primed
T1 sequence (Q8R4B8 whole entry): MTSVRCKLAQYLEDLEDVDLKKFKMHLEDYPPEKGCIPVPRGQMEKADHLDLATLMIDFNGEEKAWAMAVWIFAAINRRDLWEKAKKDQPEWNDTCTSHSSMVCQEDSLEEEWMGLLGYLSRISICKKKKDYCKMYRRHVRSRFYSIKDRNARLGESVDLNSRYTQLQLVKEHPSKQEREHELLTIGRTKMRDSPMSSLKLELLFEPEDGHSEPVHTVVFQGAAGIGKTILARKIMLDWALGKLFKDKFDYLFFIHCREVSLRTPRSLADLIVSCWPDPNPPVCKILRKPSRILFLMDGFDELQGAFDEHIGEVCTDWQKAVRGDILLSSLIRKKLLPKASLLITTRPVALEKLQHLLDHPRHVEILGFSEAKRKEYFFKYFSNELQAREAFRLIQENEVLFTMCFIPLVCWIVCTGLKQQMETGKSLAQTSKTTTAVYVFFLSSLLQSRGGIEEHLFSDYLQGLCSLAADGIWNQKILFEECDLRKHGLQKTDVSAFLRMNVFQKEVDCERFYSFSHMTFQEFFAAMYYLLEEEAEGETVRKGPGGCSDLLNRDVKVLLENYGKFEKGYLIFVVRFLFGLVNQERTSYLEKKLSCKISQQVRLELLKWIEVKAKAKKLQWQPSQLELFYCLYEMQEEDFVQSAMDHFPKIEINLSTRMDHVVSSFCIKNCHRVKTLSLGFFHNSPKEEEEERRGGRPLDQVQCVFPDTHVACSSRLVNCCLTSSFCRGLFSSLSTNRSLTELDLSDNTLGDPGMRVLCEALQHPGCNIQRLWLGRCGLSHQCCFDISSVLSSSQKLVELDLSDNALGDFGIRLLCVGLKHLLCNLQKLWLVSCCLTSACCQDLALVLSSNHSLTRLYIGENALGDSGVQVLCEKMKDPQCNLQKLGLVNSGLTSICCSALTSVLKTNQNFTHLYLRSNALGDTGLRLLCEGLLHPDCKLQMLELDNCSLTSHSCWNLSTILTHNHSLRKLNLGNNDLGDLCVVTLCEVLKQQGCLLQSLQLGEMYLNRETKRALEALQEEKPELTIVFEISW
Method in brief: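 NLRP3 inflammasome activation was read out as IL-1β released into the supernatant, measured by ELISA. Murine BMDCs were primed with LPS (50 ng ml^−1, 3 hours), then incubated with compounds for 3 hours, with each condition run in three technical replicates. Nigericin at 5 μM acted as the positive control activator, and IL-1β release was also expressed as a percentage of that control.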

NLRP3 = assay: Inflammasome stimulation (IL-1β, LDH release) in BMDCs from NLRP3 knockout or ASC knockout mice; type: cell-based, mouse; details: IL-1β and LDH release
Procedure: (§1) For canonical inflammasome activation BMDCs after 7-9 days of differentiation were harvested and counted with a Neubauer Chamber (Hecht Assistant) and the concentration was set to 1 Mio cells ml^−1. 100 μl cell suspension per well were seeded in 96-well plates. The cells were primed with 50 ng ml^−1 E. coli K12 ultra-pure LPS for 3 hours and subsequently treated with canonical inflammasome activators or experimental compounds for 3 hours if not indicated differently (incubation time FIG. 4D, 5, 7, 8, 11, 13-18: 3 h, FIG. 12: 4 h). Concentrations of the stimuli were as follows if not indicated differently: 5 μM nigericin, 100 μM imiquimod (also known as R837), 100 μM CL097, 100 μM R848, […] poly(dA:dT), 300 μg ml^−1 MSU. If an inhibitor was used before stimuli treatment, the inhibitor was added after 2.5 hours of priming and it was incubated for 30 minutes before inflammasome activation. Inhibitors were used as follows: 3 μM MCC950, 45 mM KCl, 30 μM ebselen (2-Phenyl-1,2-benzoselenazol-3-one), 5 μM cytochalasin D (see FIGS. 8, 11, 12 and 17).
(§2) All inflammasome stimulations were performed in three technical replicates for each condition. Lytic cell death was determined via LDH release (see FIGS. 8, 13-16 and 18), cytokines quantified in cell-free supernatants via ELISA (see FIGS. 4D, 7-9, 11-19) and cell lysates and supernatants analyzed via immunoblotting (see FIGS. 5A and 5B) as previously described in detail (Gross, Olaf, 2012 “Measuring the inflammasome”, Methods in molecular biology, Clifton, N.J., 844, pp. 199-222. Schneider, Katharina S.; Thomas, Christina J.; Groß, Olaf, 2013, “Inflammasome activation and inhibition in primary murine bone marrow-derived cells, and assays for IL-1α, IL-1β, and caspase-1”, Methods in molecular biology, Clifton, N.J., 1040, pp. 117-135).

NLRP3 inflammasome [2] = target: T1, NLRP3 inflammasome; assay: Inflammasome stimulation of BMDCs after pre-incubation with inhibitors (MCC950, KCl, ebselen, cytochalasin D); type: cell-based
Procedure: as §1, with “Inhibitors were used as follows: 3 μM MCC950, 45 mM KCl, 30 μM ebselen (2-Phenyl-1,2-benzoselenazol-3-one), 5 μM cytochalasin D (see FIGS. 8, 11, 12 and 17).” left out
as §2

EC50 for induction of IL-1β, times lower than for imiquimod and CL097 (NLRP3 inflammasome [1]; BMDCs, FIG. 4D): 10 times | Average (% positive control) (NLRP3 inflammasome [1]; IL-1β release, compound 50 μM, positive control nigericin 5 μM): 108.566 % positive control | Average IL-1β (NLRP3 inflammasome [1]; compound 50 μM, LPS-primed BMDCs): 7.782 ng/mL | dependence of NLRP3 inflammasome activation on potassium efflux from the cell (NLRP3 inflammasome [2]; 50 mM extracellular KCl, FIGS. 11 and 17): independently of potassium efflux | effect of the endocytosis inhibitor cytochalasin D on NLRP3 activation (NLRP3 inflammasome [2]; LPS-primed wild-type BMDCs, FIG. 12): has no effect | effect of the NLRP3-specific inhibitor MCC950 on inflammasome activation by the compound (NLRP3 inflammasome [2]; wild-type BMDCs, compound 50 μM, FIG. 8): completely suppresses
SMILES: COc1ccccc1NC(=O)NCc1nc(-c2ccc(C(F)(F)F)cc2)no1 [EN21, 1-(2-methoxyphenyl)-3-((3-(4-(trifluoromethyl)phenyl)-1,2,4-oxadiazol-5-yl)methyl)urea]
Average (% positive control) (BMDCs; compound 50 μM, positive control nigericin 5 μM): 68.766 % positive control | cytotoxicity at 50 µM (BMDCs; compound 50 μM, LPS-primed BMDCs, read-out: Average LDH release (% of max.)): 50.3% | IL-1β (NLRP3 inflammasome [1]; single replicates, compound 50 μM, LPS-primed BMDCs): 8.582 ng/mL and 7.428 ng/mL and 8.023 ng/mL and 6.613 ng/mL and 8.352 ng/mL and 7.696 ng/mL | characteristics of inflammasome activation in cells isolated from NLRP3 knockout mice (NLRP3): do not occur

SMILES: COCCNC(=O)c1cc(-c2ccn(C3CCCC3)n2)n2ccccc12 [EN54]
characteristics of inflammasome activation in cells isolated from NLRP3 knockout mice (NLRP3): do not occur

Average IL-1β (NLRP3 inflammasome [1]; 20 μM): 2.404 ng/mL | Average IL-1β (NLRP3 inflammasome [1]; 40 μM): 2.655 ng/mL | Average IL-1β (NLRP3 inflammasome [1]; 80 μM): 3.966 ng/mL | Average (% positive control) (NLRP3 inflammasome [1]; IL-1β, 20 μM, positive control EN22): 122.814 % positive control | Average (% positive control) (NLRP3 inflammasome [1]; IL-1β, 40 μM, positive control EN22): 135.661 % positive control | Average (% positive control) (NLRP3 inflammasome [1]; IL-1β, 80 μM, positive control EN22): 202.590 % positive control
SMILES: COc1ccc(NC(=O)Nc2ccc3ncccc3c2)cc1 [JB010, 1-(4-methoxyphenyl)-3-(quinolin-6-yl)urea]
Average (% positive control) (BMDCs; 20 μM, positive control EN22 20 μM): 44.689 % positive control | Average (% positive control) (BMDCs; 40 μM, positive control EN22 20 μM): 62.649 % positive control | Average (% positive control) (BMDCs; 80 μM, positive control EN22 20 μM): 77.427 % positive control | cytotoxicity at 20 µM (BMDCs; 20 μM, individual replicate values, read-out: LDH release (% of max.)): 24.4% | cytotoxicity at 20 µM (BMDCs; 20 μM, read-out: Average LDH release (% of max.)): 23.8% | cytotoxicity at 40 µM (BMDCs; 40 μM, individual replicate values, read-out: LDH release (% of max.)): 31.4% | cytotoxicity at 40 µM (BMDCs; 40 μM, read-out: Average LDH release (% of max.)): 33.4% | cytotoxicity at 80 µM (BMDCs; 80 μM, individual replicate values, read-out: LDH release (% of max.)): 38.6% | cytotoxicity at 80 µM (BMDCs; 80 μM, read-out: Average LDH release (% of max.)): 41.2% | IL-1β (NLRP3 inflammasome [1]; 20 μM, individual replicate values): 2.200 ng/mL and 3.078 ng/mL and 1.934 ng/mL | IL-1β (NLRP3 inflammasome [1]; 40 μM, individual replicate values): 2.727 ng/mL and 2.742 ng/mL and 2.498 ng/mL | IL-1β (NLRP3 inflammasome [1]; 80 μM, individual replicate values): 2.757 ng/mL and 3.613 ng/mL and 5.527 ng/mL | characteristics of inflammasome activation in cells isolated from NLRP3 knockout mice (NLRP3): do not occur

Average IL-1β (NLRP3 inflammasome [1]; 25 μM, AH series table): 2.151 ng/mL | Average IL-1β (NLRP3 inflammasome [1]; 50 μM, AH series table): 10.000 ng/mL | IL-1β (NLRP3 inflammasome [1]; 50 μM, individual replicate values, AH series table): 10.000 ng/mL | Average IL-1β (NLRP3 inflammasome [1]; 75 μM, AH series table): 9.996 ng/mL | IL-1β (NLRP3 inflammasome [1]; 75 μM, individual replicate values, AH series table): 9.988 ng/ml and 10.000 ng/ml (2×) | Average (% positive control) (NLRP3 inflammasome [1]; IL-1β, 25 μM, positive control EN22 10 μM): 21.507 % positive control | Average (% positive control) (NLRP3 inflammasome [1]; IL-1β, 50 μM, positive control EN22 10 μM): 100.000 % positive control | Average (% positive control) (NLRP3 inflammasome [1]; IL-1β, 75 μM, positive control EN22 10 μM): 99.960 % positive control
SMILES: S=C(Nc1ccccc1)Nc1ccc2ncccc2c1 [AH4, 1-phenyl-3-(quinolin-6-yl) thiourea]
Average (% positive control) (BMDCs; 25 μM, positive control EN22 10 μM): 24.359 % positive control | Average (% positive control) (BMDCs; 50 μM, positive control EN22 10 μM): 73.142 % positive control | Average (% positive control) (BMDCs; 75 μM, positive control EN22 10 μM): 89.204 % positive control | cytotoxicity at 25 µM (BMDCs; 25 μM, AH series table, read-out: Average LDH release (% of max.)): 18.7% | cytotoxicity at 25 µM (BMDCs; 25 μM, individual replicate values, AH series table, read-out: LDH release (% of max.)): 20% | cytotoxicity at 50 µM (BMDCs; 50 μM, AH series table, read-out: Average LDH release (% of max.)): 56.2% | cytotoxicity at 50 µM (BMDCs; 50 μM, individual replicate values, AH series table, read-out: LDH release (% of max.)): 57.6% | cytotoxicity at 75 µM (BMDCs; 75 μM, individual replicate values, read-out: LDH release (% of max.)): 67.9% | cytotoxicity at 75 µM (BMDCs; 75 μM, read-out: Average LDH release (% of max.)): 68.5% | IL-1β (NLRP3 inflammasome [1]; 25 μM, individual replicate values, AH series table): 2.340 ng/mL and 2.250 ng/mL and 1.863 ng/mL | characteristics of inflammasome activation in cells isolated from NLRP3 knockout mice (NLRP3): do not occur

Average IL-1β (NLRP3 inflammasome [1]; section 1.3, 5 μM): 3.664 ng/mL | Average IL-1β (NLRP3 inflammasome [1]; section 1.3, 50 μM): 5.980 ng/mL | Average IL-1β (NLRP3 inflammasome [1]; section 1.3, 100 μM): 5.023 ng/mL | Average (% positive control) (NLRP3 inflammasome [1]; section 1.3, IL-1β release, 5 μM, positive control nigericin 5 μM): 116.295 % positive control | Average (% positive control) (NLRP3 inflammasome [1]; section 1.3, IL-1β release, 50 μM, positive control nigericin 5 μM): 189.7925 % positive control | Average (% positive control) (NLRP3 inflammasome [1]; section 1.3, IL-1β release, 100 μM, positive control nigericin 5 μM): 159.415 % positive control
SMILES: O=C(Nc1cc(C(F)F)ns1)Nc1cc(F)ncc1CO [BRM/BRG1 ATP Inhibitor-1, reference compound]
cytotoxicity at 5 µM (BMDCs; section 1.3, 5 μM, read-out: Average LDH release (% of max.)): 16.6% | cytotoxicity at 50 µM (BMDCs; section 1.3, 50 μM, read-out: Average LDH release (% of max.)): 35.4% | cytotoxicity at 100 µM (BMDCs; section 1.3, 100 μM, read-out: Average LDH release (% of max.)): 24.8% | cytotoxicity at 5 µM (BMDCs; section 1.3, single replicates, 5 μM, read-out: LDH release (% of max.)): 14.1% | cytotoxicity at 50 µM (BMDCs; section 1.3, single replicates, 50 μM, read-out: LDH release (% of max.)): 38.5% | cytotoxicity at 100 µM (BMDCs; section 1.3, single replicates, 100 μM, read-out: LDH release (% of max.)): 27% | Average (% positive control) (BMDCs; section 1.3, 5 μM, positive control nigericin 5 μM): 30.921 % positive control | Average (% positive control) (BMDCs; section 1.3, 50 μM, positive control nigericin 5 μM): 65.959 % positive control | Average (% positive control) (BMDCs; section 1.3, 100 μM, positive control nigericin 5 μM): 46.154 % positive control | IL-1β (NLRP3 inflammasome [1]; section 1.3, single replicates, 5 μM): 3.556 ng/mL and 3.899 ng/mL and 3.537 ng/mL | IL-1β (NLRP3 inflammasome [1]; section 1.3, single replicates, 50 μM): 4.561 ng/mL and 6.642 ng/mL and 6.737 ng/mL | IL-1β (NLRP3 inflammasome [1]; section 1.3, single replicates, 100 μM): 7.150 ng/mL and 3.831 ng/mL and 4.087 ng/mL | characteristics of inflammasome activation in cells isolated from NLRP3 knockout mice (NLRP3): do not occur
